Consider two compounds from article PMC6383929, “Design, antimicrobial activity and mechanism of action of Arg-rich ultra-short cationic lipopeptides” (PLoS ONE, 2019).

The subject of one data set is S. aureus ATCC 29213. The data set is classed as cell-based, Staphylococcus aureus. The following applies: ATCC 29213, 24 h. The source says:
(§1) Bacteria used in this study were Escherichia coli ATCC 25922 and O18K1H7, Staphylococcus aureus ATCC 25923 and ATCC 29213, Pseudomonas aeruginosa ATCC 27853, Staphylococcus epidermidis ATCC 12228, Enterococcus faecalis ATCC 29212, Bacillus subtilis DSM 4181, Listeria monocytogenes DSM 20600, Salmonella typhimurium ATCC 14028, Acinetobacter baumannii ATCC 19606 and 17978, Klebsiella pneumoniae ATCC 13883 and 700603, Stenotrophomonas maltophilia ATCC 13637 and Burkholderia cenocepacia J2315. In addition to reference strains, a clinical isolate of E. faecalis vancomycin-resistant (VREF, strain M), and three clinical isolates of S. aureus methicillin-resistant (MRSA, strains E, G and 11), kindly provided by Dr. Lucilla Dolzani, were used. All MRSA strains are resistant to GEN, IPM, OXA, PEN, CIP and CEF; the S. aureus E strain is also resistant to CLI and ERY. VREF strain is resistant to AMK, ATM, GEN, NET, PEN, TEC, TET, TOB and VAN.
(§2) For the assays, overnight bacterial cultures were diluted 1:30 in fresh Mueller-Hinton Broth (MHB, Difco) and incubated at 37°C with shaking for approximately 2h.
(§3) The antimicrobial activity of USCLs was determined by the Minimum Inhibitory Concentration (MIC) assay, according to the guidelines of CLSI (Clinical & Laboratory Standards Institute) and described in [30, 31]. Briefly, the assays were performed in 96-well microplates in appropriate broth (MHB or SAB). […] For bacteria, a mid-log phase bacterial suspension at 2.5 × 10^5 CFU/mL in MHB was used, and the microplates incubated at 37°C for 24h. The fungal suspension in SAB broth was used at a final concentration of 5 × 10^4 cells/mL. Microplates were then incubated at 30°C for 48h. The MIC value was taken as the lowest concentration of USCLs resulting in the complete inhibition of visible bacterial or fungal growth after appropriate incubation time. Results derive from at least three independent experiments carried out in duplicate.

The subject of data set [1] is S. aureus E (MRSA clinical isolate). In kind it is cell-based, Staphylococcus aureus. Particulars: E ( clinical isolate, 24 h).
Description: as §1, §2, §3

The subject of data set [2] is S. aureus G (MRSA clinical isolate). The data set is classed as cell-based, Staphylococcus aureus. Particulars: G ( clinical isolate, 24 h).
Description: as §1, §2, §3

For data set [3], the system named is S. epidermidis ATCC 12228. The data set is classed as cell-based, Staphylococcus epidermidis. The following applies: ATCC 12228, 24 h.
Description: as §1, §2
The antimicrobial activity of USCLs was determined by the Minimum Inhibitory Concentration (MIC) assay, according to the guidelines of CLSI (Clinical & Laboratory Standards Institute) and described in [30, 31]. […]

The subject of data set [4] is S. typhimurium ATCC 14028. The data set is classed as cell-based, Salmonella typhimurium. The following applies: ATCC 14028, 24 h.
Description: as §1, §2, §3

A further data set concerns K. pneumoniae ATCC 13883. The data set is classed as cell-based, Klebsiella pneumoniae. Particulars: ATCC 13883, 24 h.
Description: as §1, §2, §3

The test system of data set [5] is K. pneumoniae ATCC 700603. The data set is classed as cell-based, Klebsiella pneumoniae. The following applies: ATCC 700603, 24 h.
Description: as §1, §2, §3

In a further data set the test system is A. baumannii ATCC 17978. In kind it is cell-based, Acinetobacter baumannii. Particulars: ATCC 17978, 24 h.
Description: as §1, §2, §3

For a further data set, the system named is A. baumannii ATCC 19606. In kind it is cell-based, Acinetobacter baumannii. Particulars: ATCC 19606, 24 h.
Description: as §1, §2, §3

The subject of the next data set is B. cenocepacia J2315. In kind it is cell-based, Burkholderia cenocepacia. The following applies: 48 h.
Description: as §1, §2
as §3, with “For bacteria, a mid-log phase bacterial suspension at 2.5 × 10^5 CFU/mL in MHB was used, and the microplates incubated at 37°C for 24h.” left out

Data set [6] can be described thus: RP-HPLC retention time (hydrophobicity). The data set is classed as physicochemical. The following applies: stated to reliably reflect the hydrophobicity in aqueous solution, assessed and provided by GenScript. The protocol: GenScript (Piscataway, NJ, USA) carried out the custom synthesis of USCLs by using high efficient solid phase peptide synthesis. The fatty acid was conjugated to the N-terminus of the peptide using the same procedure followed to attach protected amino acids to the growing peptide chain for synthesis. The purity (>90%), sequence and molecular weight of USCLs were assessed and provided by GenScript using RP-HPLC and ESI-MS. USCLs were dissolved in sterile water or DMSO at 10 mg/mL, according to manufacturer's indications.

Data set [7] concerns S. aureus 11 (MRSA clinical isolate). In kind it is cell-based, Staphylococcus aureus. Particulars: 11 ( clinical isolate, 24 h).
Description: as §1, §2, §3

The next data set deals with S. aureus ATCC 25923. The data set is classed as cell-based, Staphylococcus aureus. Particulars: ATCC 25923, 24 h.
Description: as §1, §2, §3

The subject of another data set is E. coli O18K1H7. The data set is classed as cell-based, Escherichia coli. Particulars: O18K1H7, 24 h.
Description: as §1, §2, §3

Another data set relates to E. faecalis ATCC 29212. The data set is classed as cell-based, Enterococcus faecalis. The following applies: ATCC 29212, 24 h.
Description: as §1, §2, §3

Data set [8] deals with E. faecalis M (VREF clinical isolate). In kind it is cell-based, Enterococcus faecalis. The following applies: M (VREF clinical isolate, 24 h).
Description: as §1, §2, §3

For data set [9], the system named is L. monocytogenes DSM 20600. In kind it is cell-based, Listeria monocytogenes. Particulars: DSM 20600, 24 h.
Description: as §1, §2, §3

The test system of a further data set is B. subtilis DSM 4181. In kind it is cell-based, Bacillus subtilis. The following applies: DSM 4181, 24 h.
Description: as §1, §2, §3

In data set [10] the test system is S. maltophilia ATCC 13637. In kind it is cell-based, Stenotrophomonas maltophilia. The following applies: ATCC 13637, 48 h.
Description: as §1, §2
as §3, with “For bacteria, a mid-log phase bacterial suspension at 2.5 × 10^5 CFU/mL in MHB was used, and the microplates incubated at 37°C for 24h.” left out

The subject of a further data set is C. albicans ATCC 90029. In kind it is cell-based, Candida albicans. The following applies: ATCC 90029, 48 h. The procedure:
(§4) Fungal strains used were Candida albicans ATCC 90029 and SC5314. Fungi were grown on Sabouraud dextrose (SAB, Difco) agar plates at 30°C for 48h. The initial fungal inoculum was prepared by picking and suspending five colonies in 5 mL of sterile PBS.
as §3

In another data set the test system is C. albicans SC 5314. In kind it is cell-based, Candida albicans. The following applies: SC 5314, 48 h. The procedure:
as §4, §3

The structures appear in SMILES notation. In brackets after ≈: the same amount, converted by molar mass. Where a SMILES comes first, the peptide text is derived from it. The star is where a group is joined. Lauroyl = CCCCCCCCCCCC(=O)*

As for `CCCCCCCCCCCC(=O)N[C@@H](CCCNC(=N)N)C(=O)N[C@H](C(=O)N[C@@H](Cc1c[nH]c2ccccc12)C(=O)N[C@@H](CCCNC(=N)N)C(N)=O)[C@@H](C)CC` [Lp-I] (Lauroyl-RIWR-NH2), the MIC (as a rule, the least concentration at which growth counts as inhibited) in the data set with S. aureus ATCC 29213 stood at 3.125 µg/mL (≈ 3.85 µM); in data set [1], 3.125 µg/mL (≈ 3.85 µM); in data set [2], 3.125 µg/mL (≈ 3.85 µM); in [3], 3.125 µg/mL (≈ 3.85 µM); in data set [4] it was 25 µg/mL (≈ 30.8 µM); in the data set on K. pneumoniae ATCC 13883 it was 100 µg/mL (≈ 123 µM). Besides, the MIC was 50 µg/mL (≈ 61.6 µM) in [5], 25 µg/mL (≈ 30.8 µM) with A. baumannii ATCC 17978, 25 µg/mL (≈ 30.8 µM) against A. baumannii ATCC 19606 and 12.5 µg/mL (≈ 15.4 µM) in the data set on B. cenocepacia J2315.

In the case of `CCCCCCCCCCCC(=O)N[C@@H](CCCNC(=N)N)C(=O)N[C@@H](CCSC)C(=O)N[C@@H](Cc1c[nH]c2ccccc12)C(=O)N[C@@H](CCCNC(=N)N)C(N)=O` [Lp-M, Lau-RMWR-NH2] (Lauroyl-RMWR-NH2), the Retention time in data set [6] turned out to be 12.393 min. Moreover, the MIC in data set [7] was determined as 6.25 µg/mL (≈ 7.54 µM); in the data set on S. aureus ATCC 25923, 6.25 µg/mL (≈ 7.54 µM); in data set [1], 6.25 µg/mL (≈ 7.54 µM); in data set [2], 6.25 µg/mL (≈ 7.54 µM); in the data set with E. coli O18K1H7, 25 µg/mL (≈ 30.2 µM); in [3], 3.125 µg/mL (≈ 3.77 µM). In addition, the MIC against E. faecalis ATCC 29212 was 6.25 µg/mL (≈ 7.54 µM); in [8] it was 12.5 µg/mL (≈ 15.1 µM); in [9] it was 3.125 µg/mL (≈ 3.77 µM); in the data set with B. subtilis DSM 4181 it was 3.125 µg/mL (≈ 3.77 µM); against K. pneumoniae ATCC 13883, more than 100 µg/mL; in [5], 100 µg/mL (≈ 121 µM). Further, the MIC against A. baumannii ATCC 17978 stood at 25 µg/mL (≈ 30.2 µM); in the data set on A. baumannii ATCC 19606, 25 µg/mL (≈ 30.2 µM); in [10], 12.5 µg/mL (≈ 15.1 µM); in the data set with B. cenocepacia J2315 it was 25 µg/mL (≈ 30.2 µM); against C. albicans ATCC 90029, 3.125 µg/mL (≈ 3.77 µM); in the data set with C. albicans SC 5314 it was 12.5 µg/mL (≈ 15.1 µM).
